Article doi:10.1101/177311v3 (biorxiv, 2018)

Biological target: T1, mycL-Hmg2-GFP (1myc-Hmg2-GFP; Hmg2 transmembrane region) (Saccharomyces cerevisiae, UniProt P12684)
T1 sequence (P12684 1-535 limits assumed): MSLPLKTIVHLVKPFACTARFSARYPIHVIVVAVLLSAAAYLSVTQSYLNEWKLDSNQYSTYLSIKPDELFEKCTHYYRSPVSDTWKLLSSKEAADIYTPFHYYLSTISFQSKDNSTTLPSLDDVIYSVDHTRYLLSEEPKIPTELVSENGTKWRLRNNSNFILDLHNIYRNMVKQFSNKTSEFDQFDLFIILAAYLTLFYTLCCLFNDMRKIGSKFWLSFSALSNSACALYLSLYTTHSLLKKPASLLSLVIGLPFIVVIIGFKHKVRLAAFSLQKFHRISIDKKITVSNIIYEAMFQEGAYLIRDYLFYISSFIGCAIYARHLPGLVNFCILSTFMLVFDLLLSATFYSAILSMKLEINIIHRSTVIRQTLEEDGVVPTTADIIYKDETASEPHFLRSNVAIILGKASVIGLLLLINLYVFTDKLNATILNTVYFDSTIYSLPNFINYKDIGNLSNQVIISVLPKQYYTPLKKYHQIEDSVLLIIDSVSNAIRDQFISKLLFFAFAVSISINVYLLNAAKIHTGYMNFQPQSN
Experiment: limited trypsin proteolysis of microsomes, anti-myc immunoblot
Assay type: biochemical

EC50: < 200 nM
Compound: CC(C)=CCC/C(C)=C/CC/C(C)=C/CC/C(C)=C/COP(=O)(O)OP(=O)(O)O [GGPP, geranylgeranyl pyrophosphate]
